Assay results published in US9616089B2, “Polymeric synthetic antidote” (Universite de Liege, priority 2013, dated 2017).

Experiments:
UFH [1] = assay: Neutralization of UFH in whole blood of patients heparinized in vivo (extracorporeal circulation), aPTT test; type: biochemical, human
Experimental: In example 10, several (co-)polymers of formula (I), namely two linear homopolymers of PDMAEMA (samples CS023 and CK169) and two copolymers of PDMAEMA and PEO (samples A61 and BA003) were tested for neutralization of UFH injected on human patients subjected to ExtraCorporeal Circulation (ECC) during a cardiovascular surgical operation. According to the general practice in this clinical context, a fixed dose of 3 mg/kg of UFH is administrated to these patients by intravenous injection.
10 min after this dose injection of UFH, 40 ml of whole blood were collected from the patients. In vitro UFH neutralization was conducted less than 1 hour after blood collection adding one of the (co-)polymers listed in Table 7. The concentration of these polymers ranged from 3.4 to 45 μg/mL in whole blood. A special care was taken during the addition of (co-)polymer solutions in view to ensure a rapid and reproducible homogenization of these (co-)polymers in whole human blood (rapid injection of the solution in whole human blood, i.e. in less than 1 s), followed directly by 3 up-and-down aspirations to avoid any risk of local over-concentrations.
After a 15 minutes incubation period performed at 37° C. under lateral agitation the aPTT test was carried out immediately in order to determine the residual UFH activity. The neutralization effectiveness of the different homopolymers and copolymers and of protamine was estimated from the determination of CMax, i.e. the minimal polymer concentration giving rise to a maximum neutralization of UFH. Therapeutic index (Thind) of the (co-)polymers was established as the drug concentration window giving a pharmacological effect without impairing the coagulation pathways. The mean and standard deviations corresponding to these 3 parameters were calculated from 4 independent experiments performed on senior blood patients.

UFH [2] = assay: Neutralization of UFH in human plasma, aPTT test; type: biochemical; conditions: for percentage of neutralization of UFH, mean: antidote 2 μg/mL, plasma spiked with UFH 2 μg/mL, 15 min 37°C
Experimental: (§1) Activated partial thromboplastin time (aPTT) and anti-Xa activity were measured on the freshly isolated plasma using respectively a coagulometer (BCT; Dade Behring—Siemens) and a Microplate reader (Anthos HT3, type 12600). STA-C.K. Prest*2 kit was used. Coatest kit was used to evaluate the concentration of low molecular weight heparin in blood plasma following the reactions depicted below: LMW Heparin+AT→[LMW Heparin·AT] [LMW Heparin·AT]+FXa(excess)→[LMW Heparin·AT·FXa] 2a. S-2222+FXa→Peptide+pNA (yellow)+FXa(residual) 2b.
All PECs were prepared by addition of 100 μL of heparin (10 μg/mL) to 300 μL of plasma. After a pre-incubation of 5 minutes at 37° C., 100 μL of a stock solution of polymers of formula (I) (10 μg/mL) was added to neutralize heparin. After 15 minutes of interaction 37° C. the aPTT analysis was performed. Anti Xa analysis was evaluated according to a similar procedure, except for the final concentrations of heparin and polymer of formula (I) which were […].
In view to assess the pharmacological activity of the polymers of formula (I) to neutralize the action of UFH, polymers of formula (I) were incubated in normal human plasma previously spiked with heparin, analysing afterwards the remaining coagulation activity of plasma using the activated partial thromboplastin time (aPTT) test. This bioassay was indeed typically used to analyse the functionality of the intrinsic pathway of the blood coagulation, using kaolin as synthetic activator of the coagulation. An incubation of 15 min at 37° C. was respected before measuring the aPPT test. The percentage of heparin neutralization in plasma (FIG. 4) was calculated using two different calibration curves of heparin in function of the group age of the donors. Indeed a difference in heparin sensitivity was noticed with aPPT test as a function of the range of age of human donors. Accordingly, two calibration curves of heparin were used, corresponding to the two categories of blood donors: group 1 (average age: 22 years) and group 2 (average age: 52 years).

UFH [3] = assay: Neutralization of UFH in human plasma measuring factor Xa (chromogenic Coatest Heparin); type: biochemical; conditions: UFH and antidote 0.4 μg/mL, human plasma 15 min 37°C
Experimental: as §1
Where FXa represents factor Xa and S-2222 represents Bz-Ile-Glu-(γ-OR)-Gly-Arg-pNA (CA: 59068-47-2) (SEQ ID No. 1), a chromogenic substrate cleaved by free FXa to peptide (Bz-Ile-Glu-(γ-OR)-Gly-Arg (SEQ ID No. 2)) and pNA (p-nitroaniline). AT represents antithrombin. Heparin binds to AT, causing a change in the conformation of AT to a form that binds to and sequesters the activity of FXa. Addition of a peptide that competes with AT for heparin will increase the concentration of free FXa. Thus, restoration of the activity of FXa, as indicated by the amount of S-2222 converted to peptide and pNA, provides a measure of the ability of a peptide to neutralize the anticoagulant activity of heparin (provided in technical sheet of Instrumentation Laboratory).
The assay method was calibrated using standard solutions that contain 0.1 μg/mL of AT and heparin at concentrations ranging from 0.01 to 0.07 μg/mL in buffer/normal human plasma supplied with the Coatest kit. The standard solutions were incubated at 37° C. for 3-4 minutes, after which 100 μL of bovine factor Xa (0.71 nkat) were added to 200 μL of each standard solution. The mixtures were incubated at 37° C. for 30 sec, after which 200 μL of S-2222 (0.2 μmol, 37° C.) were added and the reaction mixtures were incubated at 37° C. for exactly 3 minutes. […] The absorbance was measured at 405 nm. The ability of CLC1 and CLC2 to neutralize the anticoagulant activity of heparin was determined by addition of each polymer to heparin solution, and the assay performed as described above. […]

UFH [4] = assay: Dose-response UFH neutralization in whole human blood, aPTT test; type: biochemical; conditions: Table 4, UFH 2 μg/mL whole blood
Experimental: In Example 9 several (co-)polymers of formula (I) were tested for neutralization of UFH in whole blood. Dose-response curves were established adopting a fixed concentration of 2 μg/mL UFH added in whole blood collected on sodium citrate. Five minutes after this preconditioning step, UFH neutralization was conducted by adding one of the (co-)polymers listed in Table 4 to 6. The concentration of these polymers was varied from 0.5 to 4 μg/mL in—whole blood. A special care was taken during the addition of the (co-)polymer solution in view to assure a rapid and reproducible homogenization of this solution in whole blood (rapid injection of solution in whole blood, i.e. in less than 1 s), followed directly by 3 up-and-down aspirations to avoid any risk of local over-concentrations. The total dilution arising from the UHF and polymer solutions represents only 10% to avoid any interference with coagulation pathways.
After a 15 minutes incubation period performed at 37° C. under lateral agitation the aPTT test was carried out immediately afterwards in order to determine the residual UFH activity. […] The mean and standard deviations were calculated from two independent experiments performed on senior blood donors initially collected under sodium citrate.

UFH [5] = assay: Dose-response curve for UFH neutralization in human blood plasma, aPTT bioassay; type: biochemical; conditions: UFH 2 μg/mL in plasma, polymer 1 to 3 μg/mL
Experimental: In view to assess a possible difference in affinity between polymers of formula (I) and heparin versus protamine/heparin, dose-response curves were established, corresponding to a progressive titration of heparin action by increasing concentration of the polymers of formula (I) with aPPT bioassay (FIG. 5). This in vitro study was conducted adopting a fixed plasma concentration of UFH of 2 μg/mL added before the incubation with the polymers of formula (I). The concentration of the polymers of formula (I) was varied from 1 to 3 μg/mL. The mean and standard deviations (SD) were calculated from two independent experiments performed on senior blood donors.

LMWH = assay: Neutralization of LMWH in human plasma measuring factor Xa (chromogenic Coatest Heparin); type: biochemical; conditions: LMWH and antidote 0.4 μg/mL each, human plasma 15 min 37°C
Experimental: as §1, with “2b. […]” for “2b.”
The assay method was calibrated using standard solutions that contain 0.1 μg/mL of AT and heparin at concentrations ranging from 0.01 to 0.07 μg/mL in buffer/normal human plasma supplied with the Coatest kit. […] The absorbance was measured at 405 nm. The ability of CLC1 and CLC2 to neutralize the anticoagulant activity of heparin was determined by addition of each polymer to heparin solution, and the assay performed as described above.
The complexation of the synthetic polymers of formula (I) with low molecular weight heparin (LMWH) was assessed in vitro in the same experimental conditions as for UFH, thus using a concentration of heparin and polymers of formula (I) of 0.4 μg/mL. After their incubation of 15 minutes at 37° C., the remaining activity of factor Xa is recorded with the chromogenic assay Coatest Heparin.

For Protamine, the “aPTT at CMax” value (UFH [1]; blood of patients given 3 mg/kg UFH) was 42.7 s, the CMax (UFH [1]; minimal polymer concentration giving maximum neutralization of UFH, patients given 3 mg/kg UFH) was 22.5 µg/mL and the aPTT response (UFH [1]; protamine concentration of 45 μg/mL) was “below 70 s”. The “percentage of neutralization of heparin” value (UFH [2]; 15 minutes after addition of the polymers, human plasma (FIG. 4)) was 75%, the “percentage of neutralization of UFH, mean” value (UFH [2]; Group 1 donors (average age 22 years)) was 75.0% and the “percentage of neutralization of UFH, mean” value (UFH [2]; Group 2 donors (average age 52 years)) was 76.1%. For the same substance, the “percentage of inhibition of factor Xa, mean” value (UFH [3]; Test number 1) was 88.1%, the “percentage of inhibition of factor Xa, mean” value (UFH [3]; Test number 2) was 100.0% and the “mean inhibition of factor Xa” value (UFH [3]; mean of two independent experiments) was 94.0%. For the same substance, the CMax (UFH [4]; minimal polymer concentration giving saturation in UFH neutralization) was 3.00 µg/mL, the IC50 (UFH [4]; polymer concentration leading to 50% of maximal capacity to neutralize UFH) was 1.05 mg/L and the “concentration at the maximum of the heparin neutralization curve” value (UFH [5]) was “around 1.6 μg/mL”. For the same substance, the “percentage of inhibition of factor Xa (inhibition of heparin), mean” value (LMWH) was 31.0%.
